From article PMC10681907, “2-Hydroxyglutarate modulates histone methylation at specific loci and alters gene expression via Rph1 inhibition” (Life Science Alliance, 2023)
pIC50: −log10 of the molar value.

Experiments:
Test in all cases: FDH-coupled fluorescent demethylase assay, initial velocities, Hill fit
Type in all cases: biochemical
Rph1 = molecular target: T1, Rph1 (Saccharomyces cerevisiae, UniProt P39956)
T1 construct: full-length, N-terminal Strep(II) tag (pET51b+), expressed in E. coli BL21 Star (DE3), codon-optimized

Jhd1 = molecular target: T2, Jhd1 (Saccharomyces cerevisiae, UniProt P40034)
T2 construct: full-length, N-terminal Strep(II) tag (pET51b+), expressed in E. coli BL21 Star (DE3), codon-optimized
T2 sequence (P40034 1-492): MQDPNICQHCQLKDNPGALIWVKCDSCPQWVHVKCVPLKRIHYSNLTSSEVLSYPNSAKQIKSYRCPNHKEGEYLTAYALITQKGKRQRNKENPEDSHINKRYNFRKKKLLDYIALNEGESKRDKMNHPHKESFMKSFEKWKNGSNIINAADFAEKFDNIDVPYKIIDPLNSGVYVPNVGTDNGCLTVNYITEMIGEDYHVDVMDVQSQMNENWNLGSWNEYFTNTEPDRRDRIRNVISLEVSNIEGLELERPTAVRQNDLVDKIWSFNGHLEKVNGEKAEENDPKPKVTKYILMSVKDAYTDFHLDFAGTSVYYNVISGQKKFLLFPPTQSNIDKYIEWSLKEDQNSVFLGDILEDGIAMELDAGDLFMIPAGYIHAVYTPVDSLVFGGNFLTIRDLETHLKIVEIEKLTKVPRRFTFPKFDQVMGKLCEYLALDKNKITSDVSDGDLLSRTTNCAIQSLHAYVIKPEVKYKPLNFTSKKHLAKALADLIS

Gis1 = molecular target: T3, Gis1 (Saccharomyces cerevisiae, UniProt Q03833)
T3 construct: full-length, N-terminal Strep(II) tag (pET51b+), expressed in E. coli BL21 Star (DE3), codon-optimized
T3 sequence (Q03833 1-894): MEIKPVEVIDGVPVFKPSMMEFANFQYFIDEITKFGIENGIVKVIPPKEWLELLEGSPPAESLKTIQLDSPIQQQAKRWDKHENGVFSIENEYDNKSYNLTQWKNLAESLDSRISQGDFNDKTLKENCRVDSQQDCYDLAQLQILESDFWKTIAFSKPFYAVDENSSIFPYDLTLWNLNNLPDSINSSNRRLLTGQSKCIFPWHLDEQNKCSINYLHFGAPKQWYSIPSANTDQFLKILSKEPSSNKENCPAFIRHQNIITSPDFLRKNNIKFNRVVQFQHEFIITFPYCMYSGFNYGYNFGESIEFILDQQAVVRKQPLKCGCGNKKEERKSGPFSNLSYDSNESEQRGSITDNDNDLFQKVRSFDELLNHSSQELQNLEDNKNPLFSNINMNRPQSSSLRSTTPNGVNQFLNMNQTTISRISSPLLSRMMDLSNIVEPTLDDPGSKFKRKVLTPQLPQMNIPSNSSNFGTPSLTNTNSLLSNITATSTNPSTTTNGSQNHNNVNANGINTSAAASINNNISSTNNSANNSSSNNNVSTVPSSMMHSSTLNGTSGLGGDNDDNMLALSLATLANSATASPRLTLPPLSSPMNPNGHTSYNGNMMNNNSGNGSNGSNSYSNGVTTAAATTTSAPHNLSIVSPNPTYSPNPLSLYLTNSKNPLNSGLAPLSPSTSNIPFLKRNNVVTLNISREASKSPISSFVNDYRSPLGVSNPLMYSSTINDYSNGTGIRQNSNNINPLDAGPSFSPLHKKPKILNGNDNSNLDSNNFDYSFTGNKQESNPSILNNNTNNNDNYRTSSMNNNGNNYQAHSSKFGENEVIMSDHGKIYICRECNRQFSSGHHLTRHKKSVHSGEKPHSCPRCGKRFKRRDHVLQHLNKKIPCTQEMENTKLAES

Jhd2 = molecular target: T4, Jhd2 (Saccharomyces cerevisiae, UniProt P47156)
T4 construct: full-length, N-terminal Strep(II) tag (pET51b+), expressed in E. coli BL21 Star (DE3), codon-optimized
T4 sequence (P47156 1-728): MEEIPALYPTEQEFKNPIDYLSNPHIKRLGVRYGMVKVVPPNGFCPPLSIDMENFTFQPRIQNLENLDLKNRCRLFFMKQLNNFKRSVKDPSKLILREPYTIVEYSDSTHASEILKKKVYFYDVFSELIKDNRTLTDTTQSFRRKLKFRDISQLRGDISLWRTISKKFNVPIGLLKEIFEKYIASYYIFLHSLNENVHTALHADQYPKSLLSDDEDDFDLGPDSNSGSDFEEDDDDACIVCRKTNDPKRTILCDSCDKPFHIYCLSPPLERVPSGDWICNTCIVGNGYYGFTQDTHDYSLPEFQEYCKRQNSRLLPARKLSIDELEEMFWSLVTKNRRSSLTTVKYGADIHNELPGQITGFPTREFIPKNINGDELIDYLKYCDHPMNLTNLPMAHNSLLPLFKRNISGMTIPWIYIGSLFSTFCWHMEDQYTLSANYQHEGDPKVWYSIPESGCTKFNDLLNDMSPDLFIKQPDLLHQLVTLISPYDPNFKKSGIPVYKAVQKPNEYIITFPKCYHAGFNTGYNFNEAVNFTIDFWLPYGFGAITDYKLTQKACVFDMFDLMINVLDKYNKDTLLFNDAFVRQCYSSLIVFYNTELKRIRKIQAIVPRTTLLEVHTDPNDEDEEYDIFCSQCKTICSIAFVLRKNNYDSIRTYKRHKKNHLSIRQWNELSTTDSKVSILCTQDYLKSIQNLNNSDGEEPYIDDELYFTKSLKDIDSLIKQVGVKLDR

T1 sequence (P39956 whole entry): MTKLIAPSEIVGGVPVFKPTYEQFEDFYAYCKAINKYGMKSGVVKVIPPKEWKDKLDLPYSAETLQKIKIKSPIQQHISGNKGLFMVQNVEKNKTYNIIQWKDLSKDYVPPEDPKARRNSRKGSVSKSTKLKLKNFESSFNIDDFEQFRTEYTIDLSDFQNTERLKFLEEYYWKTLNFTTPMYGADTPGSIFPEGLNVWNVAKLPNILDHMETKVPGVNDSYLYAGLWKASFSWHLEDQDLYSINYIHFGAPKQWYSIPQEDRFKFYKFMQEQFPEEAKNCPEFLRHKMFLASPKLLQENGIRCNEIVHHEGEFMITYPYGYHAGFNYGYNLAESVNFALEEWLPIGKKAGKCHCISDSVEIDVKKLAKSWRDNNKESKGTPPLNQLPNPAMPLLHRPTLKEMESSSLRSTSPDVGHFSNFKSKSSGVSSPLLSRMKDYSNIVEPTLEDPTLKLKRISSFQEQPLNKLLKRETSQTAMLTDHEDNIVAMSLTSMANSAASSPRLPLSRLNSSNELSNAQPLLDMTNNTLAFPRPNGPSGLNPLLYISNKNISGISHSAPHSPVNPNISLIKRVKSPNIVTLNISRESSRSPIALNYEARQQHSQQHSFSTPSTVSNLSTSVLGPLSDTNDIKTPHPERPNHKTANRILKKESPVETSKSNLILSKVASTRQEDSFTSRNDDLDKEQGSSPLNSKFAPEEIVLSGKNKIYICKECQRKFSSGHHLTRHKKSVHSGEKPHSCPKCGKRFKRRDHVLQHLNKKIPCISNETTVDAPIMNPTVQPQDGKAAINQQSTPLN

pIC50 (Rph1): ~2.89
pIC50 (Jhd1): ~2.70
pIC50 (Gis1): ~2.51
pIC50 (Jhd2): ~2.66
Compound: O=C(O)CC[C@@H](O)C(=O)O [2-HG]
